Reference: USRE47689E1, “Compounds for treating spinal muscular atrophy” (PTC Therapeutics, Inc., priority 2011, dated 2019)
Where a name gives a salt, the structure may show the parent alone. Read-outs that look alike come from different tables or passages of the source.

What was measured:
Smn protein = Smn protein assay in cultured cells (SMN HTRF); format: cell-based, human; conditions: 48 hours; for EC1.5x (concentration giving 1.5-fold Smn protein increase): SMA Type 1 patient fibroblast cells (GM03813), 7-point concentration curve, SMN HTRF, concentration producing 1.5 times Smn protein vs DMSO vehicle control, read-out: EC1.5x for Smn protein expression; for maximum fold (Fold) increase of Smn protein: SMA patient fibroblast cells, 7-point concentration data, fold increase relative to vehicle control (SMN HTRF)
Procedure, shortened: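 Lysates in RIPA with protease inhibitors are incubated overnight at room temperature with HTRF anti-SMN antibodies. EC1.5x is derived from fold increase in ΔF over vehicle.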

[1] = test system: SMN2 minigene (full length SMN2 minigene mRNA containing SMN2 exon 7); experiment: SMN2 minigene mRNA splicing RT-qPCR assay in cultured cells; format: cell-based, human; conditions: Homo sapiens, HEK293-H, read-out: EC1.5x for production of full length SMN2 mRNA
Procedure, shortened: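 HEK293H cells stably carrying the SMN2-A minigene treated 24 h at 37° C with compound (DMSO, 200× stock), then lysed. Multiplex RT-qPCR (SMN primers 0.4 μM final; 40 cycles) measures full-length exon 7-containing minigene mRNA, normalized to GAPDH and to vehicle; EC1.5x derived and binned by stars.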

[2] = HEK293H cells stably transfected with SMN2-A minigene, 24 hours, 7-point concentration curve, 1.5-fold relative to vehicle-treated cells

| SMILES | melting point | EC1.5x (concentration giving 1.5-fold Smn protein increase) (Smn protein) | maximum fold (Fold) increase of Smn protein (Smn protein) | EC (1.5-fold) [1, 2] | EC (1.5-fold) ([1]; 24 h) |
| --- | --- | --- | --- | --- | --- |
| Cc1cn2cc(-c3cc4ccc(N(C)[C@@H]5CCNC5)cc4oc3=O)nc2c(C)n1 [Compound 700, 3-(6,8-dimethylimidazo[1,2-a]pyrazin-2-yl)-7-{methyl[(3R)-pyrrolidin-3-yl]amino}-2H-chromen-2-one] | 192 to 202 °C | < 300 nM | ***** (fold increase >1.65) | 0.1 to 0.3 µM | – |
| Cc1cc(F)c2nc(-c3cc4ccc(N[C@H]5CCNC5)cc4oc3=O)cn2c1 [Compound 582, 3-(8-fluoro-6-methylimidazo[1,2-a]pyridin-2-yl)-7-[(3S)-pyrrolidin-3-ylamino]-2H-chromen-2-one] | 230 to 240 °C | – | ** (fold increase between >1.2 and ≤1.35) | 0.3 to 1 µM | – |
| O=c1oc2cc(N3CCNCC3)ccc2cc1-c1nc2c(Cl)cccc2s1 (as salt: hydrochloride) [Cpd 5, 3-(4-chloro-1,3-benzothiazol-2-yl)-7-(piperazin-1-yl)-2H-chromen-2-one hydrochloride] | 290 °C (dec.) | – | – | – | – |
| O=c1oc2cc(N3CCNCC3)ccc2cc1Nc1ccccn1 [Cpd 32, 7-(piperazin-1-yl)-3-(pyridin-2-ylamino)-2H-chromen-2-one] | 191 to 194 °C | – | – | – | 3 to 30 µM |
| Cn1ccc(-c2cc3ccc(N4CCNCC4)cc3oc2=O)n1 [Cpd 38, 3-(1-methyl-1H-pyrazol-3-yl)-7-(piperazin-1-yl)-2H-chromen-2-one] | 224 to 228 °C | – | – | – | 1 to 3 µM |
| O=c1oc2cc(N3CCNCC3)ccc2cc1-c1ccc(Cl)cn1 [Compound 113, 3-(5-chloropyridin-2-yl)-7-(piperazin-1-yl)-2H-chromen-2-one] | 180 to 182 °C | – | – | – | 3 to 30 µM |
| O=c1oc2cc(N3C[C@@H]4C[C@H]3CN4)ccc2cc1-c1cn2cccnc2n1 (as salt: hydrochloride) [Compound 129, 7-[(1S,4S)-2,5-diazabicyclo[2.2.1]hept-2-yl]-3-(imidazo[1,2a]pyrimidin-2-yl)-2H-chromen-2-one hydrochloride (1:3)] | > 300 °C | – | – | – | – |
| O=c1oc2cc(N3CCNCC3)ccc2cc1-c1nc2ccccc2s1 (as salt: hydrochloride) [Cpd 4, 3-(1,3-benzothiazol-2-yl)-7-(piperazin-1-yl)-2H-chromen-2-one hydrochloride] | 250 °C (dec.) | – | – | – | – |
| O=c1oc2cc(N3CCNCC3)ccc2cc1Nc1cccnc1 [Compound 66, 7-(piperazin-1-yl)-3-(pyridin-3-ylamino)-2H-chromen-2-one] | 172 to 175 °C | – | – | – | 3 to 30 µM |
| O=c1oc2cc(N3CCNCC3)ccc2cc1Nc1ncccn1 [Compound 33, 7-(piperazin-1-yl)-3-(pyrimidin-2-ylamino)-2H-chromen-2-one] | 193 to 195 °C | – | – | – | 3 to 30 µM |
| O=c1oc2cc(OC3CCNC3)ccc2cc1-c1cn2cccnc2n1 (stereo in doubt) (as salt: hydrochloride) [Cpd 321, 3-(imidazo[1,2-a]pyrimidin-2-yl)-7-[(3R)-pyrrolidin-3-yloxy]-2H-chromen-2-one hydrochloride (1:2)] | 240 to 250 °C | – | – | – | – |
| CN(C)C1CCN(c2ccc3cc(-c4nc5ccccc5o4)c(=O)oc3c2)C1 (stereo not drawn) [Compound 48, 3-(1,3-benzoxazol-2-yl)-7-[3-(dimethylamino)pyrrolidin-1-yl]-2H-chromen-2-one] | 222 to 224 °C | – | – | 1 to 3 µM | – |
| Cl.O=c1oc2cc(N3CCNCC3)ccc2cc1-c1nc2cccc(C(F)(F)F)c2o1 | 297 to 307 °C | – | – | – | – |
| COc1cccc(-c2cc3ccc(N4CCNCC4)cc3oc2=O)c1 [Compound 77, 3-(3-methoxyphenyl)-7-(piperazin-1-yl)-2H-chromen-2-one] | 127 to 130 °C | – | – | 3 to 30 µM | – |

Continued, in another order:

| melting point | SMILES | EC1.5x (concentration giving 1.5-fold Smn protein increase) (Smn protein) | maximum fold (Fold) increase of Smn protein (Smn protein) | EC (1.5-fold) [1, 2] | EC (1.5-fold) ([1]; 24 h) |
| --- | --- | --- | --- | --- | --- |
| 273 to 275 °C | Cc1cn2cc(-c3cc4ccc(N5C[C@H](O)[C@@H](N6CCCC6)C5)cc4oc3=O)nc2c(C)n1 [Compound 739, 3-(6,8-dimethylimidazo[1,2-a]pyrazin-2-yl)-7-[(3′S,4′S)-4′-hydroxy-1,3′-bipyrrolidin-1′-yl]-2H-chromen-2-one] | < 300 nM | **** (fold increase between >1.5 and ≤1.65) | < 0.1 µM | – |
| 218 to 224 °C | C[C@H]1CN(c2ccc3cc(-c4cn5cc(F)cc(F)c5n4)c(=O)oc3c2)CCN1 [Compound 524, 3-(6,8-difluoroimidazo[1,2-a]pyridin-2-yl)-7-[(3S)-3-methylpiperazin-1-yl]-2H-chromen-2-one] | – | * (maximum fold increase of ≤1.2) | 0.3 to 1 µM | – |
| 233 to 235 °C | CN(C)[C@H]1[C@@H]2CN(c3ccc4cc(-c5cn6ccsc6n5)c(=O)oc4c3)C[C@@H]21 [Compound 437, 7-[(1R,5S,6s)-6-(dimethylamino)-3-azabicyclo[3.1.0]hex-3-yl]-3-(imidazo[2,1-b][1,3]thiazol-6-yl)-2H-chromen-2-one] | – | ** (fold increase between >1.2 and ≤1.35) | 1 to 3 µM | – |
| 168 to 172 °C | Cc1cn2cc(-c3cc4ccc(CCN(C)CCO)cc4oc3=O)nc2c(C)n1 [Compound 871, 3-(6,8-dimethylimidazo[1,2-a]pyrazin-2-yl)-7-{2-[(2-hydroxyethyl)(methyl)amino]ethyl}-2H-chromen-2-one] | < 300 nM | **** (fold increase between >1.5 and ≤1.65) | < 0.1 µM | – |
| 135 to 140 °C | CN(C)Cc1ccc2cc(-c3cn4ccsc4n3)c(=O)oc2c1 [Compound 198, 7-[(dimethylamino)methyl]-3-(imidazo[2,1-b][1,3]thiazol-6-yl)-2H-chromen-2-one] | 3000 to 10000 nM | **** (fold increase between >1.5 and ≤1.65) | 0.3 to 1 µM | – |
| 193 to 196 °C | O=c1oc2cc(CN3CCC(O)CC3)ccc2cc1-c1nc2c(Cl)cccc2s1 [Compound 273, 3-(4-chloro-1,3-benzothiazol-2-yl)-7-[(4-hydroxypiperidin-1-yl)methyl]-2H-chromen-2-one] | – | – | 1 to 3 µM | – |
| 210 to 212 °C | Cc1cccn2cc(-c3cc4ccc(N5CCN(CCO)CC5)cc4oc3=O)nc12 [Compound 102, 7-[4-(2-hydroxyethyl)piperazin-1-yl]-3-(8-methylimidazo[1,2-a]pyridin-2-yl)-2H-chromen-2-one] | – | – | 1 to 3 µM | – |
| 205 to 211 °C | Cc1cn2cc(-c3cc4ccc(C5=CCNCC5)cc4oc3=O)nc2c(C)n1 | – | – | – | – |
| 271 to 275 °C | Cc1ccn2cc(-c3cc4ccc(O[C@@H]5CCNC5)cc4oc3=O)nc2c1 (as salt: hydrochloride) [Compound 323, 3-(7-methylimidazo[1,2-a]pyridin-2-yl)-7-[(3R)-pyirolidin-3-yloxy]-2H-chromen-2-one hydrochloride (1:2)] | – | – | – | – |
| 220 to 226 °C | O=c1oc2cc(OC3CCNCC3)ccc2cc1-c1nc2ccccc2s1 [Compound 46, 3-(1,3-benzothiazol-2-yl)-7-(piperidin-4-yloxy)-2H-chromen-2-one] | – | – | 0.3 to 1 µM | – |
| 217 to 219 °C | Cc1cccc2oc(-c3cc4ccc(N5CCN(C)CC5)cc4oc3=O)nc12 [Compound 21, 3-(4-methyl-1,3-benzoxazol-2-yl)-7-(4-methylpiperazin-1-yl)-2H-chromen-2-one] | – | – | 3 to 30 µM | – |
| 190 to 193 °C | Cc1cccn2cc(-c3cc4ccc(N5CCNCC5)cc4oc3=O)nc12 [Compound 44, 3-(8-methylimidazo[1,2-a]pyridin-2-yl)-7-(piperazin-1-yl)-2H-chromen-2-one] | – | – | 0.3 to 1 µM | – |
| 152 to 159 °C | CN1CCN(c2ccc3cc(-c4ccn(-c5ccccc5)n4)c(=O)oc3c2)CC1 [Cpd 74, 7-(4-methylpiperazin-1-yl)-3-(1-phenyl-1H-pyrazol-3-yl)-2H-chromen-2-one] | – | – | 3 to 30 µM | – |
| 339 to 341 °C | Cl.O=c1oc2cc(N3CCNCC3)ccc2cc1-c1nc2c(C(F)(F)F)cccc2o1 | – | – | – | – |
| 238 to 248 °C | O=C(Nc1ccccc1)c1cc2ccc(N3CCNCC3)cc2oc1=O (as salt: trifluoroacetate) [Cpd 3, 2-oxo-N-phenyl-7-(piperazin-1-yl)-2H-chromene-3-carboxamide trifluoroacetate] | – | – | – | – |
| 150 to 156 °C | CN1CCN(c2ccc3cc(-c4cccc(C(F)(F)F)c4)c(=O)oc3c2)CC1 [Compound 11, 7-(4-methylpiperazin-1-yl)-3-[3-(trifluoromethyl)phenyl]-2H-chromen-2-one] | – | – | 3 to 30 µM | – |
| 195 to 198 °C | CCN1CC[C@@H](Oc2ccc3cc(-c4nc5ccccc5s4)c(=O)oc3c2)C1 [Compound 127, 3-(1,3-benzothiazol-2-yl)-7-{[(3R)-1-ethylpyrrolidin-3-yl]oxy}-2H-chromen-2-one] | – | – | 1 to 3 µM | – |
| 220 to 223 °C | Cc1cn2cc(-c3cc4ccc(N5CCN[C@H](C)C5)cc4oc3=O)cc2cn1 [Compound 637, 7-[(3R)-3-methylpiperazin-1-yl]-3-(3-methylpyrrolo[1,2-a]pyrazin-7-yl)-2H-chromen-2-one] | – | – | < 0.1 µM | – |
